Data as given in US5744121A (priority 1996, dated 1998).
Like-named read-outs stand apart in the source and are kept apart here.

Columns and labels:
[1] = biological target: T1, 5-HT1A receptor (rat hippocampal homogenates) (Rattus norvegicus, UniProt P19327); test: Inhibition of [^125 I]-8-OH-PIPAT binding to rat hippocampal homogenates; settings: ligand [^125 I]-8-OH-PIPAT
T1 construct: in rat hippocampal membrane preparations; from tissue; host or cells: rat hippocampus (membrane preparations / tissue homogenates)
T1 sequence (P19327 1-422): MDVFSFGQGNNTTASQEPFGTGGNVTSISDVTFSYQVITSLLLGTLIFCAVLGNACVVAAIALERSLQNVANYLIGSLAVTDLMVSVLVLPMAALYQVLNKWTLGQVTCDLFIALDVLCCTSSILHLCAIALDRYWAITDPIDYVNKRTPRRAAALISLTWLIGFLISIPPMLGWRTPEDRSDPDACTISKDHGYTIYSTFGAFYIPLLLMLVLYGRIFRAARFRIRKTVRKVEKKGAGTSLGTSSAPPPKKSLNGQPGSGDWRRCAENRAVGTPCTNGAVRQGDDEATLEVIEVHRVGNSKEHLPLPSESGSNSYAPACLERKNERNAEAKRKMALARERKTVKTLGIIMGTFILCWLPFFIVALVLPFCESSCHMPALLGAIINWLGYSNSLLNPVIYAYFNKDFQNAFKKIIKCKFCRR
Excerpt: The 5-HT1A binding affinity of p-, m-, o- MPPI, p-fluoro- and p-nitro-MPP derivatives (1a-f) in rat hippocampal membrane preparations with [^123 ]

[2] = Regional brain distribution in rats after iv injection; type: in vivo, Male Sprague-Dawley rats; settings: rat; for tissue uptake at 0.05 h: 3 min; for tissue uptake at 2 h: 120 min
Experimental: While the rats were under ether anesthesia, 0.2 mL of a saline solution containing [^123 I]1a and 1b (8-10 μCi) was injected directly into the femoral vein, and rats were sacrificed at various time points postinjection by cardiac excision under ether anesthesia. The organs of interest were removed and weighed and the radioactivity was counted with a Packard garnma automatic counter (Model 5000). The percentage dose per organ was calculated by a comparison of the tissue counts to suitably diluted aliquots of the injected material. Total activities of blood and muscle were calculated under the assumption that they were 7% and 40% of the total body weight, respectively.
By dissecting, weighing and counting samples from different brain regions (cortex, striatum, hippocampus, hypothalamus and cerebellum), the percentage dose/gram of the sample was calculated by comparing the sample counts with the count of the diluted initial dose.

[3] = biological target: T1, 5-HT1A receptor (rat hippocampal homogenates); test: Inhibition of [^125 I]-p-MPP binding to rat hippocampal homogenates
[4] = Stability of the radiolabelled product on storage; type: physicochemical; settings: -20° C., at least four weeks, HPLC; 40320 min
[5] = Biodistribution in rats after iv injection; type: in vivo, Male Sprague-Dawley rats; settings: average of 3 rats ± SD
Experimental: Male Sprague-Dawley rats (225-300 g), allowed free access to food and water, were used for an in vivo biodistribution study. While the rats were under ether anesthesia, 0.2 mL of a saline solution containing [^123 I]1a and 1b (8-10 μCi) was injected directly into the femoral vein, and rats were sacrificed at various time points postinjection by cardiac excision under ether anesthesia. The organs of interest were removed and weighed and the radioactivity was counted with a Packard […] automatic counter (Model 5000). The percentage dose per organ was calculated by a comparison of the tissue counts to suitably diluted aliquots of the injected material.

5-HT1A receptor = test: Blocking studies: regional brain uptake ratios in rats; type: in vivo; settings: pretreated rats, 30 min post iv injection of tracer
Experimental: In order to further characterize the in vivo brain uptake of 1a in rats, blocking studies were carried out to determine changes of the ratios of regional brain uptake. […] Ratios for each region were calculated based on the % dose/gram of each region divided by the same in CB. […] (HP: hippocampus; CB: cerebellum; HY: hypothalamus; CX: cortex; ST: striatum).

[6] = system: 5-HT1A receptor (rat hippocampal membranes); settings: cited from earlier work
[7] = biological target: T2, 5-HT1A receptor (rat hippocampus tissue homogenates) (Rattus norvegicus, UniProt P19327); test: Saturation binding of [^125 I]p-MPPI to rat hippocampus tissue homogenates
T2 construct: in rat hippocampal membrane preparations; from tissue; host or cells: rat hippocampus (membrane preparations / tissue homogenates)
T2 sequence (P19327 1-422): T1 sequence (P19327 1-422)

[8] = ligand [^125 I]-p-MPP, rat hippocampal homogenates, read-out: Ki
[9] = cerebellum, iv, rats (Table IV), read-out: Regional distribution, cerebellum
[10] = cortex, iv, rats (Table IV), read-out: Regional distribution, cortex
[11] = hippocampus, iv, rats (Table IV), read-out: Regional distribution, hippocampus
[12] = hypothalamus, iv, rats (Table IV), read-out: Regional distribution, hypothalamus
[13] = striatum, iv, rats (Table IV), read-out: Regional distribution, striatum

COc1ccccc1N1CCN(CCN(C(=O)c2ccc(F)cc2)c2ccccn2)CC1 [Compound 1d]
Ki [1]: 3.3 ± 0.8 nM

COc1ccccc1N1CCN(CCN(C(=O)c2cccc(I)c2)c2ccccn2)CC1 [Compound 1b, 4-(2'-methoxy)phenyl-1-[2"-(N-2"-pyridinyl)-m-iodobenzamido]ethyl piperazine]
tissue uptake at 1 h ([2]; hippocampus, 60 minutes after iv injection, ^123 I labeled, read-out: Uptake in hippocampal tissue): 0.013 %ID/g
Ki [1]: 1.7 ± 0.1 nM
Ki [3, 8]: 2.46 ± 0.14 nM
purity on storage [4]: > 95%
Brain uptake ([5]; 2 min): 0.76 % dose/organ

COc1ccccc1N1CCN(CCN(C(=O)c2ccc(I)cc2)c2ncccn2)CC1 [Compound 1g, 4(2'-methoxy)phenyl-1-[2'-(N-2"-pyrimidinyl)-p-iodobenzamido] ethy piperazine]
Ki [1]: 6.08 ± 0.8 nM

CCCN(CCC)C1CCc2cccc(O)c2C1 (racemic) [(± 8-OH-DPAT), 8-hydroxy-2-(N,N-di-n-propyl)aminotetralin, reference compound]
specific uptake of [^123 I] or [^125 I]1a in the hippocampus after pretreatment (5-HT1A receptor): mark decrease

O=C(CCCN1CCC2(CC1)C(=O)NCN2c1ccccc1)c1ccc(F)cc1 [spiperone]
Ki [3, 8]: 12.2 ± 2.2 nM

COc1ccccc1N1CCN(C[C@@H](C(=O)NC(C)(C)C)c2ccccc2)CC1 [(5)-WAY 100135, N-tert-butyl-3-(4-(-2-methoxyphenyl)piperazin-1-yl)-2-phenylpropionamide]
selectivity ([6]; 5-HT1A receptor): selective antagonist at both somatodendritic and postsynaptic receptor
IC50 ([6]; rat hippocampal membranes): 15 nM

COc1cccc(OC)c1OCCNCC1COc2ccccc2O1 (stereo not shown) [WB 4101]
Ki [3, 8]: 5 ± 0.5 nM

COc1ccccc1N1CCN(CCN(C(=O)c2cccc([123I])c2)c2ccccn2)CC1 [[^123 I] 1b]
tissue uptake at 2 min [2, 9]: 0.47 ± 0.01 %ID/g
tissue uptake at 0.05 h [2, 9]: 0.039 ± 0.003 %ID/g
tissue uptake at 1 h ([2]; cerebellum, 60 min, iv, rats (Table IV), read-out: Regional distribution, cerebellum): 0.014 ± 0.004 %ID/g
tissue uptake at 2 h [2, 9]: 0.008 ± 0.0004 %ID/g
tissue uptake at 2 min [2, 10]: 0.5 ± 0.03 %ID/g
tissue uptake at 0.05 h [2, 10]: 0.043 ± 0.002 %ID/g
tissue uptake at 1 h ([2]; cortex, 60 min, iv, rats (Table IV), read-out: Regional distribution, cortex): 0.015 ± 0.005 %ID/g
tissue uptake at 2 h [2, 10]: 0.008 ± 0.0008 %ID/g
tissue uptake at 2 min [2, 11]: 0.54 ± 0.03 %ID/g
tissue uptake at 0.05 h [2, 11]: 0.051 ± 0.005 %ID/g
tissue uptake at 1 h ([2]; hippocampus, 60 min, iv, rats (Table IV), read-out: Regional distribution, hippocampus): 0.013 ± 0.004 %ID/g
tissue uptake at 2 h [2, 11]: 0.006 ± 0.001 %ID/g
tissue uptake at 2 min [2, 12]: 0.5 ± 0.04 %ID/g
tissue uptake at 0.05 h [2, 12]: 0.042 ± 0.003 %ID/g
tissue uptake at 1 h ([2]; hypothalamus, 60 min, iv, rats (Table IV), read-out: Regional distribution, hypothalamus): 0.015 ± 0.005 %ID/g
tissue uptake at 2 h [2, 12]: 0.01 ± 0.002 %ID/g
tissue uptake at 2 min [2, 13]: 0.51 ± 0.003 %ID/g
tissue uptake at 0.05 h [2, 13]: 0.042 ± 0.004 %ID/g
tissue uptake at 1 h ([2]; striatum, 60 min, iv, rats (Table IV), read-out: Regional distribution, striatum): 0.012 ± 0.003 %ID/g
tissue uptake at 2 h [2, 13]: 0.006 ± 0.0008 %ID/g
Blood uptake ([5]; 2 min): 5.06 ± 0.32 % dose/organ
Brain uptake ([5]; 2 min): 0.76 ± 0.05 % dose/organ
Heart uptake ([5]; 2 min): 0.77 ± 0.08 % dose/organ
Kidney uptake ([5]; 2 min): 3.67 ± 0.22 % dose/organ
Liver uptake ([5]; 2 min): 25.72 ± 3.29 % dose/organ
Lung uptake ([5]; 2 min): 1.87 ± 0.08 % dose/organ
Muscle uptake ([5]; 2 min): 14.98 ± 1.16 % dose/organ
Skin uptake ([5]; 2 min): 10.16 ± 3.32 % dose/organ
Spleen uptake ([5]; 2 min): 0.68 ± 0.12 % dose/organ
Thyroid uptake ([5]; 2 min): 0.07 ± 0.02 % dose/organ
Blood uptake ([5]; 30 min): 2.27 ± 0.24 % dose/organ
Brain uptake ([5]; 30 min): 0.07 ± 0.004 % dose/organ
Heart uptake ([5]; 30 min): 0.11 ± 0.008 % dose/organ
Kidney uptake ([5]; 30 min): 1.18 ± 0.11 % dose/organ
Liver uptake ([5]; 30 min): 8.04 ± 0.63 % dose/organ
Lung uptake ([5]; 30 min): 0.31 ± 0.004 % dose/organ
Muscle uptake ([5]; 30 min): 10.13 ± 4.90 % dose/organ
Skin uptake ([5]; 30 min): 13.71 ± 0.52 % dose/organ
Spleen uptake ([5]; 30 min): 0.09 ± 0.01 % dose/organ
Thyroid uptake ([5]; 30 min): 0.06 ± 0.02 % dose/organ
Blood uptake ([5]; 60 min): 1.21 ± 0.08 % dose/organ
Brain uptake ([5]; 60 min): 0.02 ± 0.006 % dose/organ
Heart uptake ([5]; 60 min): 0.05 ± 0.005 % dose/organ
Kidney uptake ([5]; 60 min): 0.54 ± 0.007 % dose/organ
Liver uptake ([5]; 60 min): 4.58 ± 0.30 % dose/organ
Lung uptake ([5]; 60 min): 0.13 ± 0.02 % dose/organ
Muscle uptake ([5]; 60 min): 4.75 ± 1.76 % dose/organ
Skin uptake ([5]; 60 min): 5.85 ± 1.99 % dose/organ
Spleen uptake ([5]; 60 min): 0.04 ± 0.006 % dose/organ
Thyroid uptake ([5]; 60 min): 0.05 ± 0.02 % dose/organ
Blood uptake ([5]; 120 min): 1.08 ± 0.13 % dose/organ
Brain uptake ([5]; 120 min): 0.016 ± 0.0005 % dose/organ
Heart uptake ([5]; 120 min): 0.03 ± 0.003 % dose/organ
Kidney uptake ([5]; 120 min): 0.36 ± 0.008 % dose/organ
Liver uptake ([5]; 120 min): 4.13 ± 0.44 % dose/organ
Lung uptake ([5]; 120 min): 0.10 ± 0.004 % dose/organ
Muscle uptake ([5]; 120 min): 5.56 ± 3.54 % dose/organ
Skin uptake ([5]; 120 min): 3.66 ± 0.68 % dose/organ
Spleen uptake ([5]; 120 min): 0.029 ± 0.002 % dose/organ
Thyroid uptake ([5]; 120 min): 0.11 ± 0.07 % dose/organ

O=C(c1ccc(F)cc1)C1CCN(CCn2c(=O)[nH]c3ccccc3c2=O)CC1 [hetanserin]
Ki [3]: 1970 ± 98 nM

COc1ccccc1N1CCN(CCN(C(=O)c2ccc([125I])cc2)c2ccccn2)CC1 [[^125 I]-MPPI]
Bmax ([7]; 37° C., 15 min, 50 mM Tris-HCl pH 7.4, 2 mM MgCl2, 10 μM 5-HT for nonspecific binding): 264 fmol/mg of protein
Kd ([7]; 37° C., 15 min, 50 mM Tris-HCl pH 7.4, 2 mM MgCl2, 10 μM 5-HT for nonspecific binding, read-out: Kd (FIG. 1)): 0.36 nM
Kd ([7]; rat hippocampal homogenates, Kung, Unpublished data, read-out: Kd (Table I footnote)): 0.3 nM
